# Experiments:
# MMP-9 [1] = molecular target: MMP-9 (Homo sapiens, UniProt P14780); assay: fluorimetric assay of MMP activity; type: biochemical; details: synthetic fluorescent peptide substrate Mca-Lys-Pro-Leu-Gly-Leu-Dpa-Ala-Arg-NH2
# MMP-3 = MMP-3 (Homo sapiens, UniProt P08254); assay: fluorimetric assay of MMP activity; type: biochemical; details: synthetic fluorescent peptide substrate Mca-Lys-Pro-Leu-Gly-Leu-Dpa-Ala-Arg-NH2
# [2] = system: MMPs 1, 2, 3, 7, 8, 9, 12, 13 and 14; assay: activity against a battery of MMPs (summary in words); type: biochemical, human
# skin wounds = assay: healing of 6 mm skin wounds in streptozotocin-diabetic rats, clinical wound diameter; type: in vivo, rat; details: 7 days
# Procedure: Three weeks after inducing diabetes, the back skin of all the rats was shaved and a series of 6 standard wounds per rat, each 6 mm in diameter, was made using a surgical trephine.
# A finely-ground sample (0.1 g) of Compound 4 [4-(phenylaminocarbonyl)-1,7-bis(4-hydroxyphenyl)hepta-1e,6e-diene-3,5-dione] was added to petrolatum jelly (9 g) and the mixture was homogenized for 15 minutes at 25° C., then allowed to settle for 5 minutes. This procedure was repeated nine times, producing a homogeneous product having a cream-like consistency. This was then used in topical application to wounds.
# The following five experimental groups (n=3 rats per group) were established: Non-diabetic control rats (NDC) treated by daily application of white petrolatum jelly (“vehicle”) for 7 days, diabetic rats (D group) treated daily with vehicle alone; diabetics treated by daily topical application of either a 1% (D+1%) or a 3% (D+3%) suspension of Compound 4 in the vehicle; and diabetics treated systemically by daily oral intubation of a 1 ml suspension of Compound 4 (in carboxymethylcellulose) at a dose of 30 mg/kg over the 7-day treatment protocol (D+30 mg/kg). At the end of this time period, the circular wounds were clinically assessed by measuring diameter of the wound in millimeters, blood samples were collected, the rats were sacrificed, and skin samples collected for histological/histochemical, and biochemical assessment as described below. • 1) On day 7 after inducing wound healing, the animals were anesthetized and blood samples collected for blood glucose (one Touch Ultra Glucometer; Johnson & Johnson, New Brunswick, N.J.) and Hemoglobin A1c (A1c Now+; Bayer Health Care, Sunnyvale, Calif.) measurements. • 2) Photographs were taken for clinical observations to assess wound closure. The % reduction of the wound surface was calculated by measuring the diameter (in millimeters) of each wound before and after the treatment protocol. • 3) Wound tissues on day 7 were excised from 3 sites per rat and pooled for biochemical analysis. […]
# [3] = severity of hyperglycemia (blood glucose, HbA1c) in diabetic rats; type: in vivo, rat
# Procedure: The following five experimental groups (n=3 rats per group) were established: Non-diabetic control rats (NDC) treated by daily application of white petrolatum jelly (“vehicle”) for 7 days, diabetic rats (D group) treated daily with vehicle alone; diabetics treated by daily topical application of either a 1% (D+1%) or a 3% (D+3%) suspension of Compound 4 in the vehicle; and diabetics treated systemically by daily oral intubation of a 1 ml suspension of Compound 4 (in carboxymethylcellulose) at a dose of 30 mg/kg over the 7-day treatment protocol (D+30 mg/kg). At the end of this time period, the circular wounds were clinically assessed by measuring diameter of the wound in millimeters, blood samples were collected, the rats were sacrificed, and skin samples collected for histological/histochemical, and biochemical assessment as described below. • 1) On day 7 after inducing wound healing, the animals were anesthetized and blood samples collected for blood glucose (one Touch Ultra Glucometer; Johnson & Johnson, New Brunswick, N.J.) and Hemoglobin A1c (A1c Now+; Bayer Health Care, Sunnyvale, Calif.) measurements. • 2) Photographs were taken for clinical observations to assess wound closure. […]
# MMP-9 [4] = assay: MMP-9 in conditioned media of peritoneal macrophages, gelatin zymography; type: in vivo, rat; details: diabetic rats, oral 30 mg/kg daily, 21 days; no LPS
# Procedure: Adult male Sprague-Dawley rats (body weight 300-350 g) were injected through the tail vein with either 0.9% saline (non-diabetic control) or with the same solution containing streptozotocin (70 mg/kg body weight) to induce diabetes. Non-diabetic rats served as normal controls. The diabetic rats were distributed into 2 experimental groups (3 rats per group). Urine glucose levels were measured weekly with Tes-Tape (Eli Lilly Inc.). One group of rats was treated by oral gavage of Compound 4 (30 mg/kg body weight) daily for 21 days; the Compound 4 was suspended in 2% carboxymethyl cellulose and polytron/homogenized. The normal & diabetic vehicle-treated (control) groups were oral gavaged with vehicle alone daily.
# Rat peritoneal macrophages were harvested with 10 ml RPMI 4 days after intraperitoneal injection of 10 ml of thioglycolate (3% wt/vol). Macrophages were then purified by density gradient centrifugation (lymphoprep) and cell numbers were counted in a hemocytometer. The cells were then tested in a cell migration assay (Cell BioLabs, Inc, CytoSelect 96-well with 5 um fluorometric format) using conditioned medium containing inflammatory mediators including MCP-1 from LPS-macrophages as a chemoattractant. The macrophages from different groups of rats were also plated onto 24 well-plates with and without p.g.LPS challenge for 24 hours in 37° C., 5% CO2. […]
# contact dermatitis = assay: poison ivy contact dermatitis on the arms of a human subject, topical; type: in vivo; details: Example 9
# From the text: The leaves of a poison ivy plant are applied to equally sized areas of the left and right arms of a human subject.
# mosquito bites = mosquito bites on the arms of a human subject, topical; type: in vivo; details: Example 9
# From the text: Mosquitoes are presented with and allowed to bite the left and right arms of a human subject.
# MMP-3, sequence (P08254 100-477): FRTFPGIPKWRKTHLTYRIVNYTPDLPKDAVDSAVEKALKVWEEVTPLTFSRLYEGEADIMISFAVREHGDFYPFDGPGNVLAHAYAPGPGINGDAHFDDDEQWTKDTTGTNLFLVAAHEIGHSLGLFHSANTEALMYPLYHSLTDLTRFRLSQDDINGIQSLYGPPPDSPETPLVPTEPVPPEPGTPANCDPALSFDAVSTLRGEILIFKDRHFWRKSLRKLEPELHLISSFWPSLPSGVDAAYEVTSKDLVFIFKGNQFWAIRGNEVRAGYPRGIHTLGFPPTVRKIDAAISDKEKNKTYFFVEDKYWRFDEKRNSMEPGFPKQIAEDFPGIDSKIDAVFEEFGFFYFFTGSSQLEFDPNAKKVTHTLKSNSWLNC
# MMP-9 (Homo sapiens, UniProt P14780), sequence (P14780 94-707): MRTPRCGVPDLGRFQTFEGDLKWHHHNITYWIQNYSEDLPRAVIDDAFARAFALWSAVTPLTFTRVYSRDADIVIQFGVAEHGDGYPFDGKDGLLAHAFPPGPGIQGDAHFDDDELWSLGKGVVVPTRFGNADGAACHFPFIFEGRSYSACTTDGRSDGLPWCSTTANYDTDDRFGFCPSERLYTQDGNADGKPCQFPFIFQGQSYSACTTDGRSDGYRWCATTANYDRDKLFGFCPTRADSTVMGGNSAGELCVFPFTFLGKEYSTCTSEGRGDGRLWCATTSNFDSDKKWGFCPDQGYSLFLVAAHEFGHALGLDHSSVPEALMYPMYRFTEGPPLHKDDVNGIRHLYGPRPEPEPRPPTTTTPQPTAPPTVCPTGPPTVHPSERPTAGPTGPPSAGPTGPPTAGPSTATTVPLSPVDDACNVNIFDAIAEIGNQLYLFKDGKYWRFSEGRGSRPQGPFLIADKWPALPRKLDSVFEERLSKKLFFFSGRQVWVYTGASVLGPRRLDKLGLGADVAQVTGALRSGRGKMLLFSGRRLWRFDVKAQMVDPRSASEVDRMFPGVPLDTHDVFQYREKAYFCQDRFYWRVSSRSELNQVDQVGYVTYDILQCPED
smiles,measurement,setting,value
"O=C(/C=C/c1ccc(O)cc1)C(C(=O)/C=C/c1ccc(O)cc1)C(=O)Nc1ccccc1 [Compound 4, 1,7-Bis(4-hydroxyphenyl)-4-N-phenylaminocarbonylhepta-1E, 6E-dien-3,5-dione]",IC50,MMP-9 [1],8 ± 0.6 µM
same,IC50,MMP-3,2.9 ± 0.4 µM
same,anti-MMP activity (in words),[2],highly active
same,reduction in wound diameter,"skin wounds; 1% topical in petrolatum jelly, daily, non-diabetic control 30%",35%
same,wound healing (in words),"skin wounds; 3% topical, daily",significant increase in wound healing over that of the untreated diabetic control
same,wound healing (in words),"skin wounds; systemic, oral 30 mg/kg daily",returned wound healing characteristics to that seen in the non-diabetic control group
same,effect on severity of hyperglycemia,"[3]; oral 30 mg/kg daily, 21 days",did not affect the severity of hyperglycemia
same,"effect on severity of hyperglycemia (blood glucose, HbA1c)","[3]; topical 1% or 3% or oral 30 mg/kg, 7 days",none of the topical or systemic treatments with Compound 4 demonstrated any effect
same,MMP-9 levels in peritoneal macrophages,MMP-9 [4],decreased
same,itching and healing of contact dermatitis compared with Compound 2,contact dermatitis,stops itching sooner and heals quicker
same,itching and healing of mosquito bites compared with Compound 2,mosquito bites,stop itching sooner and heal quicker

# From patent US20160355465A1, “NOVEL MODIFIED CURCUMINS AND THEIR USES” (THE RESEARCH FOUNDATION OF STATE UNIVERSITY OF NEW YORK, priority 2011, published 2016)
